From patent US10646469B2, “Substituted indole derivatives as dengue viral replication inhibitors” (Janssen Pharmaceuticals, Inc., priority 2016, dated 2020)

Assays:
Vero cells = assay: Toxicity on the same plates (ATPlite cell viability); conditions: Vero cells, same plates as DENV-2 antiviral assay
DENV-2 16681 strain = assay: DENV-2 antiviral assay (eGFP-labeled virus in Vero cells); assay type: cell-based, Dengue virus; conditions: DENV-2 16681 eGFP, MOI 0.5, 3 days
Description: The antiviral activity of all the compounds of the invention was tested against the DENV-2 16681 strain which was labeled with enhanced green fluorescent protein (eGPF). The culture medium consists of minimal essential medium supplemented with 2% of heat-inactivated fetal calf serum, 0.04% gentamycin (50 mg/mL) and 2 mM of L-glutamine. Vero cells, obtained from ECACC, were suspended in culture medium and 25 μL was added to 384-well plates (2500 cells/well), which already contain the antiviral compounds. Typically, these plates contain a 5-fold serial dilution of 9 dilution steps of the test compound at 200 times the final concentration in 100% DMSO (200 nL). […] Finally, each plate contains wells which are assigned as virus controls (containing cells and virus in the absence of compound), cell controls (containing cells in the absence of virus and compound) and medium controls (containing medium in the absence of cells, virus and compounds). To the wells assigned as medium control, 25 μL of culture medium was added instead of Vero cells. Once the cells were added to the plates, the plates were incubated for 30 minutes at room temperature to allow the cells to distribute evenly within the wells. Next, the plates were incubated in a fully humidified incubator (37° C., 5% CO2) until the next day. Then, DENV-2 strain 16681, labeled with eGFP, was added at a multiplicity of infection (MOI) of 0.5. Therefore, 15 μL of virus suspension was added to all the wells containing test compound and to the wells assigned as virus control. In parallel, 15 μL of culture medium was added to the medium and cell controls. Next, the plates were incubated for 3 days in a fully humidified incubator (37° C., 5% CO2). At the day of the read out, the eGFP fluorescence was measured using an automated fluorescence microscope at 488 nm (blue laser). Using an in-house LIMS system, inhibition dose response curves for each compound were calculated and the half maximal effective concentration (EC50) was determined. Therefore, the percent inhibition (I) for every test concentration is calculated using the following formula: I=100*([…])/(SVC−SCC); ST, SCC and SVC are the amount of eGFP signal in the test compound, cell control and virus control wells, respectively. The EC50 represents the concentration of a compound at which the virus replication is inhibited with 50%, as measured by a 50% reduction of the eGFP fluorescent intensity compared to the virus control. The EC50 is calculated using linear interpolation (Table 1).

Compound: COc1cc(NC(C(=O)c2c[nH]c3c(C)cc(OC(F)(F)F)cc23)c2ccc(F)cc2OC)cc(OCCO)c1 (single isomer, unassigned) [Compound 8B, 2-(4-fluoro-2-methoxyphenyl)-2-((3-(2-hydroxyethoxy)-5-methoxyphenyl)amino)-1-(7-methyl-5-(trifluoromethoxy)-1H-indol-3-yl)ethanone]
- CC50 (Vero cells): 6 µM
- EC50 (DENV-2 16681 strain): 31 nM

Compound: COc1cc(NC(C(=O)c2c[nH]c3cc(OC)c(C(F)(F)F)cc23)c2ccc(F)cc2OC)cc(OCCO)c1 (single isomer, unassigned) [Compound 2B, 2-(4-fluoro-2-methoxyphenyl)-2-((3-(2-hydroxyethoxy)-5-methoxyphenyl)amino)-1-(6-methoxy-5-(trifluoromethyl)-1H-indol-3-yl)ethanone]
- CC50 (Vero cells): 6.8 µM
- EC50 (DENV-2 16681 strain): 24 nM

Compound: COc1cc(NC(C(=O)c2c[nH]c3ccc(C(F)(F)F)cc23)c2ccc(F)cc2OC)cc(OCCO)c1 (single isomer, unassigned) [Compound 1A, 2-(4-fluoro-2-methoxyphenyl)-2-((3-(2-hydroxyethoxy)-5-methoxyphenyl)amino)-1-(5-(trifluoromethyl)-1H-indol-3-yl)ethanone]
- CC50 (Vero cells): 6.8 µM
- EC50 (DENV-2 16681 strain): 64 nM

Compound: COc1cc(NC(C(=O)c2c[nH]c3cc(F)c(C(F)(F)F)cc23)c2ccc(Cl)cc2OC)cc(OCCO)c1 (single isomer, unassigned) [Compound 11B, 2-(4-chloro-2-methoxyphenyl)-1-(6-fluoro-5-(trifluoromethyl)-1H-indol-3-yl)-2-((3-(2-hydroxyethoxy)-5-methoxyphenyl)amino)ethanone]
- CC50 (Vero cells): 2.7 µM
- EC50 (DENV-2 16681 strain): 15 nM

Compound: COc1cc(NC(C(=O)c2c[nH]c3cc(F)c(OC(F)(F)F)cc23)c2ccc(F)cc2OC)cc(OCCO)c1 (single isomer, unassigned) [Compound 7A, 2-(4-fluoro-2-methoxyphenyl)-1-(6-fluoro-5-(trifluoromethoxy)-1H-indol-3-yl)-2-((3-(2-hydroxyethoxy)-5-methoxyphenyl)amino)ethanone]
- CC50 (Vero cells): 6.7 µM
- EC50 (DENV-2 16681 strain): 25 nM

Compound: COc1cc(NC(C(=O)c2c[nH]c3cc(F)c(C(F)(F)F)cc23)c2ccc(F)cc2OC)cc(OCCO)c1 (single isomer, unassigned) [Compound 3B, 2-(4-fluoro-2-methoxyphenyl)-1-(6-fluoro-5-(trifluoromethyl)-1H-indol-3-yl)-2-((3-(2-hydroxyethoxy)-5-methoxyphenyl)amino)ethanone]
- CC50 (Vero cells): 7.8 µM
- EC50 (DENV-2 16681 strain): 15 nM

Compound: COc1cc(NC(C(=O)c2c[nH]c3cc(OC)c(OC(F)(F)F)cc23)c2ccc(Cl)cc2OC)cc(OCCO)c1 (single isomer, unassigned) [Compound 14B, 2-(4-chloro-2-methoxyphenyl)-2-((3-(2-hydroxyethoxy)-5-methoxyphenyl)amino)-1-(6-methoxy-5-(trifluoromethoxy)-1H-indol-3-yl)ethanone]
- CC50 (Vero cells): 5.4 µM
- EC50 (DENV-2 16681 strain): 7.2 nM

Compound: COc1cc(NC(C(=O)c2c[nH]c3cc(OC)c(OC(F)(F)F)cc23)c2ccc(F)cc2OC)cc(OCCO)c1 (single isomer, unassigned) [Compound 6B, 2-(4-fluoro-2-methoxyphenyl)-2-((3-(2-hydroxyethoxy)-5-methoxyphenyl)amino)-1-(6-methoxy-5-(trifluoromethoxy)-1H-indol-3-yl)ethanone]
- CC50 (Vero cells): 10 µM
- EC50 (DENV-2 16681 strain): 98 nM

Compound: COc1cc(NC(C(=O)c2c[nH]c3c(C)cc(OC(F)(F)F)cc23)c2ccc(Cl)cc2OC)cc(OCCO)c1 (single isomer, unassigned) [Compound 16B, 2-(4-chloro-2-methoxyphenyl)-2-((3-(2-hydroxyethoxy)-5-methoxyphenyl)amino)-1-(7-methyl-5-(trifluoromethoxy)-1H-indol-3-yl)ethanone]
- CC50 (Vero cells): 3.6 µM
- EC50 (DENV-2 16681 strain): 15 nM
